Laboratory results taken from patent US9492436B2, “Azabenzimidazole derivatives” (Boehringer Ingelheim International GmbH, priority 2013, dated 2016).
In brackets after ≈: the same amount, converted by molar mass.

Legend:
[1] = Aqueous solubility (buffer vs acetonitrile/water, 24 h shaking, LC-UV); type: physicochemical; details: kinetic from dmso stock, 2.5% DMSO, ">" = more than 90% dissolved
Description: The aqueous solubility of the compounds of the invention is determined by comparing the amount dissolved in buffer to the amount in an acetonitrile/water (1/1) solution. Starting from a 10 mM DMSO stock solution aliquots are diluted with acetonitrile/water (1/1) or buffer resp. After 24 h of shaking, the solutions are filtrated and analyzed by LC-UV. The amount dissolved in buffer is compared to the amount in the acetonitrile solution.
Solubility is usually being measured from 0.001 to 0.125 mg/ml at a DMSO concentration of 2.5%. If more than 90% of the compound is dissolved in buffer, the value is marked with “>”.

plasma proteins [2] = test: Plasma protein binding by equilibrium dialysis, human plasma; type: in vitro ADME; details: 37° C.
Description: (§1) Equilibrium dialysis (ED) technique is used to determine the approximate in vitro fractional binding of test compounds to plasma proteins (human, rat mouse):
(§2) Teflon dialysis cells or RED-devices are used. Each cell consists of a donor and an acceptor chamber, separated by an ultrathin semipermeable membrane (cutoff 5-10 kDa, high permeability).
(§3) Stock solutions for each test compound are prepared in DMSO. Plasma (anticoagulant EDTA) is spiked with test compound and then transferred into the donor chamber, while dialysis buffer (PBS containing Dextran, pH 7.4) is dispensed into the acceptor chamber.
(§4) Dextran (Leuconostoc ssp, MW approx. 40000, No. 31389, Fluka) concentration [g/L] in PBS for species: • human: 40 g/L buffer • rat: 37 g/L buffer • mouse 32 g/L buffer.
(§5) Incubation is carried out for up to 6 hours (standard 3 h) under rotation at 37° C. After the dialysis period aliquots of both dialysates are analysed using HPLC-MS/MS.
(§6) Percent bound is calculated according to the equation: % bound=(Cp−Cb/Cp)×100 • Cp=plasma concentration • Cb=buffer concentration
(§7) Percent free is calculated according to the equation: % free=100−% bound

plasma proteins [3] = test: Plasma protein binding by equilibrium dialysis, rat plasma; type: in vitro ADME; details: 37° C.
Description: as §1, §2, §3, §4, §5, §6, §7

plasma proteins [4] = test: Plasma protein binding by equilibrium dialysis, mouse plasma; type: in vitro ADME; details: 37° C.
Description: as §1, §2, §3, §4, §5, §6, §7

[5] = molecular target: T1, AMPK complex 1 (containing alpha1beta1gamma1) (Homo sapiens, UniProt Q13131+Q9Y478); test: In vitro AMPK activation assay (ADP-Glo Kinase Assay); type: biochemical; details: 30 μM ATP, 1 μM peptide, 60 min, room temperature
T1 construct: GST (Glutathion S transferase) (N); made in house; host or cells: baculovirus; virus made in Sf9, expression in High Five cells
How it was run: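 GST-tagged human AMPK alpha1beta1gamma1 expressed in insect cells, incubated with 1 μM peptide substrate and 30 μM ATP for 60 min at room temperature, 0.1% DMSO. ADP-Glo luminescence as % of vehicle control (AMP 30 μM high reference); EC50 from 4-parameter fit; activation above 100%.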

T1 sequence (Q13131 whole entry): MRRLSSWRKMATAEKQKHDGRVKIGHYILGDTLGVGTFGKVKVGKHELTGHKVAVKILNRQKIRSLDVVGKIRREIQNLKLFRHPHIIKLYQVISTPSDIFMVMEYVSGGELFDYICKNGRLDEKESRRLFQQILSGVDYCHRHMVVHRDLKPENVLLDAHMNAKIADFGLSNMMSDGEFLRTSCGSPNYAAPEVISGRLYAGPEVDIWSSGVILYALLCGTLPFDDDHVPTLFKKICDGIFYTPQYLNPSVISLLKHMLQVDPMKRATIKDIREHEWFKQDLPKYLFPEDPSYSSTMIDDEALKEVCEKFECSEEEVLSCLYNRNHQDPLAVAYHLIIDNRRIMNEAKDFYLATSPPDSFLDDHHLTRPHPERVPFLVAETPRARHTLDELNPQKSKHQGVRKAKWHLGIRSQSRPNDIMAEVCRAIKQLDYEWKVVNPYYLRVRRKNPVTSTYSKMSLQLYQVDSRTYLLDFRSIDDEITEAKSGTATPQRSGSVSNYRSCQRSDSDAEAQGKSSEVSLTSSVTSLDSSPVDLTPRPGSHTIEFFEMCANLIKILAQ
T1 sequence (Q9Y478 whole entry): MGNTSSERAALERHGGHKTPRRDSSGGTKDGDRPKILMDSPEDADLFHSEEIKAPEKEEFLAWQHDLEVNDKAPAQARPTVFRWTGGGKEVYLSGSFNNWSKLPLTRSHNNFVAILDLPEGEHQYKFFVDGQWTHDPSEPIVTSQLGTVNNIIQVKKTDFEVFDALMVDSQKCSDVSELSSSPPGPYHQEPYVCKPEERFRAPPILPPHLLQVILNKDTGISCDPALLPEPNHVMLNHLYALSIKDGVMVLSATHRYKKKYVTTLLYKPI
T1 sequence (P54619 whole entry partner): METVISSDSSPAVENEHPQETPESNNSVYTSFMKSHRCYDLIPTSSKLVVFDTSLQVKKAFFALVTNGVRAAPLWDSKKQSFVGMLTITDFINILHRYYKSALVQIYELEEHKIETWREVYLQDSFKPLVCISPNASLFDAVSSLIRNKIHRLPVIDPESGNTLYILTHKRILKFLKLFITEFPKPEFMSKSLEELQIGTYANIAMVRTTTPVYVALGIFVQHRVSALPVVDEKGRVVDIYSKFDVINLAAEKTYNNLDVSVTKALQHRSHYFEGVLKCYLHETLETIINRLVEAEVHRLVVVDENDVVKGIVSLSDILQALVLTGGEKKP

Row | Structure (SMILES) | solubility at 24 h ([1]; pH 2.2 buffer) | solubility at 24 h ([1]; pH 4.5 buffer) | solubility at 24 h ([1]; pH 6.8 buffer) | Plasma Protein Binding (plasma proteins [2]) | Plasma Protein Binding (plasma proteins [3]) | Plasma Protein Binding (plasma proteins [4]) | EC50 [5]
1 | CS(C)(=O)=NCc1ccc(-c2ccc(-c3nc4[nH]c(O[C@@H]5CO[C@H]6[C@@H]5OC[C@H]6O)nc4cc3Cl)cc2)cc1 [Example 45, N-(4′-(6-Chloro-2-((3R,3aR,6R,6aR)-6-hydroxyhexahydrofuro[3,2-b]furan-3-yloxy)-3H-imidazo[4,5-b]pyridin-5-yl)biphenyl-4-ylmethyl)-S,S-dimethylsulfoximide] | > 119 µg/mL | 5 µg/mL (≈ 9.01 µM) | < 1 µg/mL | 98.48 % bound | 98.94 % bound | 99.23 % bound | 29 nM
2 | CS(C)(=O)=Nc1ccc(-c2ccc(-c3nc4[nH]c(O[C@@H]5CO[C@H]6[C@@H]5OC[C@H]6O)nc4cc3Cl)cc2)cc1 [Example 2, N-(4′-(6-Chloro-2-((3R,3aR,6R,6aR)-6-hydroxyhexahydrofuro[3,2-b]furan-3-yloxy)-3H-imidazo[4,5-b]pyridin-5-yl)biphenyl-4-yl)-S,S-dimethylsulfoximide] | 17 µg/mL (≈ 31.4 µM) | 2 µg/mL (≈ 3.7 µM) | 1 µg/mL (≈ 1.85 µM) | 98.55 % bound | 98.67 % bound | 98.68 % bound | 3 nM
3 | CN=S(C)(=O)c1ccc(-c2ccc(-c3nc4[nH]c(O[C@@H]5CO[C@H]6[C@@H]5OC[C@H]6O)nc4cc3Cl)cc2)cc1 (stereo partly drawn) [Example 10, (3R,3aR,6R,6aR)-6-(6-Chloro-5-(4′-(N,S-dimethylsulfonimidoyl)biphenyl-4-yl)-3H-imidazo[4,5-b]pyridin-2-yloxy)hexahydrofuro[3,2-b]furan-3-ol] | 105 µg/mL (≈ 194 µM) | < 1 µg/mL | < 1 µg/mL | 98.92 % bound | 98.23 % bound | 98.64 % bound | 4 nM
